Where “and” joins values, the source holds several entries; their conditions need not be identical. Identical values can stand only once. Like-named read-outs stand apart in the source and are kept apart here.
Experiments:
[1] = target: T1, human dopamine transporter (hDAT) (Homo sapiens, UniProt Q01959); experiment: biochemical; assay type: binding
[2] = target: T2, human serotonin transporter (hSERT) (Homo sapiens, UniProt P31645); experiment: biochemical; details: Table 5, read-out: SERT binding affinity Ki
[3] = target: T3, human norepinephrine transporter (hNET) (Homo sapiens, UniProt P23975); experiment: biochemical; details: Table 5; [125I]RTI-55; oxalate salts; read-out: NET binding affinity Ki
[4] = target: T1, human dopamine transporter (hDAT); experiment: cell-based; details: for IC50: Reuptake Inhibition [3H]DA IC50, Table 6; for Discrimination Ratios (DR) [3H]DA reuptake/DAT binding: Table 6
[5] = target: T2, human serotonin transporter (hSERT); experiment: cell-based; details: Reuptake Inhibition [3H]5-HT IC50, Table 6
[6] = target: T3, human norepinephrine transporter (hNET); experiment: cell-based; details: Table 6; read-out: Reuptake Inhibition [3H]NE IC50
[7] = target: T4, D1 receptor (Homo sapiens, UniProt P21728); experiment: D1 receptor binding, LHD1 cells, [3H]SCH 23,390
T4 construct: expressed in transfected cells; host or cells: LHD1 cells

[8] = target: T5, D2 receptor (Homo sapiens, UniProt P14416); experiment: D2 receptor binding, CHOp- cells, [3H]YM-09151-2
T5 construct: expressed in transfected cells; host or cells: CHOp- cells (CHOp-D2)

[9] = target: T6, D3 receptor (Homo sapiens, UniProt P35462); experiment: D3 receptor binding, CHOp- cells, [3H]YM-09151-2
T6 construct: expressed in transfected cells; host or cells: CHOp- cells (CHOp-D3)

[10] = target: T7, 5-HT1A receptor (Homo sapiens, UniProt P08908); experiment: 5-HT1A receptor binding, HA7 cells, [3H]8-OH-DPAT
T7 construct: expressed in transfected cells; host or cells: HA7 cells
T7 sequence (P08908 1-422): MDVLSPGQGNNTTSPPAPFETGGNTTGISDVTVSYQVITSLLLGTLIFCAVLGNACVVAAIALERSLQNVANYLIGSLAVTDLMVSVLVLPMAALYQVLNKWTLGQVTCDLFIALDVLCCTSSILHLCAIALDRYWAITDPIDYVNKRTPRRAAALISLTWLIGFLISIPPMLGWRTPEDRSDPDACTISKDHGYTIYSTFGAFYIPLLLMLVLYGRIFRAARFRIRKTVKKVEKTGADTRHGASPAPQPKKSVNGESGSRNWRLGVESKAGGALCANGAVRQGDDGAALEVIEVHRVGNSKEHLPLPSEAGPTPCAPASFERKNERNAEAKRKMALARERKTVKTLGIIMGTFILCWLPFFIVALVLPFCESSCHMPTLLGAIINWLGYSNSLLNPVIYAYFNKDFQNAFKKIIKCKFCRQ

[11] = target: T8, 5-HT2A receptor (Rattus norvegicus, UniProt P14842); experiment: 5-HT2A receptor binding, NIH-3T3-GF6 cells, [3H]ketanserin
T8 construct: expressed in transfected cells; host or cells: NIH-3T3-GF6 cells

[12] = target: T9, 5-HT2C receptor (Rattus norvegicus, UniProt P08909); experiment: 5-HT2C receptor binding, NIH-3T3-P cells, [3H]mesulergine
T9 construct: expressed in transfected cells; host or cells: NIH-3T3-P cells
T9 sequence (P08909 33-460): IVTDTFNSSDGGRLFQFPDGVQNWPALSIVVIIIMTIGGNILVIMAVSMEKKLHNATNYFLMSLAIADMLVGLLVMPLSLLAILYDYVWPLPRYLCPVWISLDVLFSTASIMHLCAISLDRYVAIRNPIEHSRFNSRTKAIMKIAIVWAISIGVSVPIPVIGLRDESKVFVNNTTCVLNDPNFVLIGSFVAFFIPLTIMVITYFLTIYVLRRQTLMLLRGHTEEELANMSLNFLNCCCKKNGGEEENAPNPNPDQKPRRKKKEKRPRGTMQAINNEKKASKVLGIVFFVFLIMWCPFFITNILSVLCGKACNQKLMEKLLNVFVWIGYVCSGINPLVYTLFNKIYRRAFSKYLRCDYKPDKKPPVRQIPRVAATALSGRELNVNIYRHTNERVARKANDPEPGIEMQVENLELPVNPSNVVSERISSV

[13] = target: T5, D2 receptor; experiment: cell-based
[14] = target: T6, D3 receptor; experiment: Inhibition of quinpirole-stimulated mitogenesis ([3H]thymidine incorporation), CHOp-D3 cells; assay type: cell-based
[15] = system: male Swiss-Webster mice; experiment: Locomotor activity, compound alone, 1-h session; assay type: in vivo, mouse
Procedure: (§1) 3. Locomotor Activity. […] Panels of infrared beams (16 beams) and corresponding photodetectors were located in the horizontal direction along the sides of each activity chamber. […] Just prior to placement in the apparatus, all mice received a saline injection IP. In all studies, horizontal activity (interruption of 1 photocell beam) was measured for 1-h within 10-min periods. Testing was conducted with one mouse per activity chamber. […] Plot the mean (±SEM) maximal stimulant activity (total counts in the 30 min period divided by 3) vs dose. Perform a log10 transformation of the 30 min period average counts for individual subjects to homogenize variances for subsequent analyses. […] Fit the 30 min period average counts across subjects to a function of log10 dose using least-squares curve-fitting analyses (i.e. TableCurve software from Jandel). Estimate the maximum effect from the resultant dose-response curve. […] Determine the ED50 (dose that produces ½ maximal stimulant activity) from a linear regression analysis of the ascending portion (up to the dose that produces a maximal effect) of the curve. […] Plot the mean (±SEM) activity (total counts in the 30 min period divided by 3) vs dose. Perform a log10 transformation of the 30 min period average counts for individual subjects to homogenize variances for subsequent analyses. Conduct an ANOVA and contrast (specified a priori) each dose of the test compound to the vehicle to determine significant (p<0.05) dose effects. Conduct a linear least-squares regression analysis; regress the min period average counts across subjects over the descending portion of the curve against the log10 dose of the test compound. […] Perform a log10 transformation of the 30 min period average counts for individual subjects to homogenize variances for subsequent analyses. […] Conduct a linear least-squares regression analysis; regress the 30 min period average counts across subjects over the descending portion of the curve against the log10 dose of the test compound. […] Locomotor Activity 8-hour time course/dose response study. […] A panel of infrared beams (16 beams) and corresponding photodetectors were located in the horizontal direction along the sides of each activity chamber. A 7.5-W incandescent light above each chamber provided dim illumination. Fans provided an 80-dB ambient noise level within the chamber. […] In all studies, horizontal activity (interruption of photocell beams) was measured for 8-h within 10-min periods, beginning at 0800 hrs (2 hours after lights on). Testing was conducted with one mouse per activity chamber. Compound alone study.

[16] = system: male Swiss-Webster mice; experiment: Cocaine/compound interaction study on locomotor activity; assay type: in vivo, mouse; details: for Attenuation of cocaine-induced LMA: 20 mg/kg of cocaine; for AD50, dose attenuating cocaine-induced stimulation by 50%: Table 8, ligand-cocaine interaction study, 20 mg/kg cocaine IP
[17] = system: male Swiss-Webster mice; experiment: Locomotor activity 8-hour time course/dose response study; details: for ED50: Mus musculus, ip, 8 h, read-out: ED50, dose producing 1/2 maximal stimulant activity (S, stimulation); for ME/CME, Maximal Effect/Cocaine Maximal Effect / mode of action / ID50, dose producing 1/2 maximal depressant activity (I, inhibition): Table 9, 8 hours; for mode of action: ligand alone study; for ID50, dose producing 1/2 maximal depressant activity (I, inhibition): mouse, IP
Procedure: as §1

T1 sequence (Q01959 whole entry): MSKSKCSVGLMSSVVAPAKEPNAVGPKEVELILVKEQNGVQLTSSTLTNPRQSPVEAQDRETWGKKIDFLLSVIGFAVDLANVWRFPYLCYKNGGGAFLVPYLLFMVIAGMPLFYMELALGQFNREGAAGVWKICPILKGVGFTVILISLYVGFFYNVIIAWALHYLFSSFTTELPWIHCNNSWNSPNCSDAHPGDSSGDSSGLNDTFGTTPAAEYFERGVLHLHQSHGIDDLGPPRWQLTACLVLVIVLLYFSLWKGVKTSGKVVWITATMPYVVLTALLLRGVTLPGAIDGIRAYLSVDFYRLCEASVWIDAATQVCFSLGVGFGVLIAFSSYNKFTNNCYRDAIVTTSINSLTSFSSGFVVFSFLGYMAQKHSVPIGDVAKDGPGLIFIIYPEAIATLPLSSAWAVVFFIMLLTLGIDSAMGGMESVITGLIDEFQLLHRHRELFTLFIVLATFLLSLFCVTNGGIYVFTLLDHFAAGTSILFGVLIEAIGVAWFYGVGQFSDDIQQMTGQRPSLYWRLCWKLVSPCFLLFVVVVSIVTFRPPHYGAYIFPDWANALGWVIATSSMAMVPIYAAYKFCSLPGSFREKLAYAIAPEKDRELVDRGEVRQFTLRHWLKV
T6 sequence (P35462 whole entry): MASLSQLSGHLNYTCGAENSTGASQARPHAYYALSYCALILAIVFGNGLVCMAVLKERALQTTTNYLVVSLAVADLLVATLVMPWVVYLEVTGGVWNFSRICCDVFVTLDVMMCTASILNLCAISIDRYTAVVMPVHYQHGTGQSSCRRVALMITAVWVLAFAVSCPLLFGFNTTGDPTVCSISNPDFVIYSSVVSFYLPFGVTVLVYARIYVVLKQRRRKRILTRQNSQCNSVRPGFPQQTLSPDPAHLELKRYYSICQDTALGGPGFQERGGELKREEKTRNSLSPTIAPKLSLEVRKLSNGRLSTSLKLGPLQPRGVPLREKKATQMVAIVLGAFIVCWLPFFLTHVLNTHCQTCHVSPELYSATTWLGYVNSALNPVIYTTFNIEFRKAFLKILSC
T2 sequence (P31645 whole entry): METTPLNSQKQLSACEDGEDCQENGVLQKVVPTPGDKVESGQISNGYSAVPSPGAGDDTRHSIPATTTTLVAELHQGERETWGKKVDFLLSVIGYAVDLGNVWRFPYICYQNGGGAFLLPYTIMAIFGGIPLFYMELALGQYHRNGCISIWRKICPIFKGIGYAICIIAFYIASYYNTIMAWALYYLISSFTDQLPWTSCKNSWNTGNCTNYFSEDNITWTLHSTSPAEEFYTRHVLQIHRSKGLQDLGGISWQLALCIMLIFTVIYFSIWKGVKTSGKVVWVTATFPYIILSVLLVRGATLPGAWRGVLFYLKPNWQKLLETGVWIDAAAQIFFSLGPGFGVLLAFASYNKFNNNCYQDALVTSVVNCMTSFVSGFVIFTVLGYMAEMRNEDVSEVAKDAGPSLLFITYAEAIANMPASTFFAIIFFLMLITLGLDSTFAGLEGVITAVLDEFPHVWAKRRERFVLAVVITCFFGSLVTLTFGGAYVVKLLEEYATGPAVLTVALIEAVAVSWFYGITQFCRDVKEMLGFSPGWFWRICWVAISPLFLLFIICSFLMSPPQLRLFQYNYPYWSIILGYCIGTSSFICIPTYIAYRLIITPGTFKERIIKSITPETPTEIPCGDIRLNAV
T3 sequence (P23975 whole entry): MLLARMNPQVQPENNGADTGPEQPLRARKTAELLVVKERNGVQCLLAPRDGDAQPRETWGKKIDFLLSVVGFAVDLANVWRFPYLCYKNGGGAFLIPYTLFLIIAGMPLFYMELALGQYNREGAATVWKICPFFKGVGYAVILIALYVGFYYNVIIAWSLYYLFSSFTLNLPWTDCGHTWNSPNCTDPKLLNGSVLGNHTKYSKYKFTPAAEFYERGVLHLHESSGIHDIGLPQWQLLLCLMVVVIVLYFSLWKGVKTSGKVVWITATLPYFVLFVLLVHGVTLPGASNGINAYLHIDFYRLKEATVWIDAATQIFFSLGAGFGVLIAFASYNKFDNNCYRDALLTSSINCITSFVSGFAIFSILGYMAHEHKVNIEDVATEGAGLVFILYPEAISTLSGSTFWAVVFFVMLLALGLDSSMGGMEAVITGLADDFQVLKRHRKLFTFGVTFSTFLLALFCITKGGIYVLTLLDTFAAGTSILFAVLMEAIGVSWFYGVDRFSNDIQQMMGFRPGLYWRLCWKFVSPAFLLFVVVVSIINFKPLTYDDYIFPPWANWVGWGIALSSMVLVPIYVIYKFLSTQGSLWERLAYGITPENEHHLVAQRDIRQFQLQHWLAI
T5 sequence (P14416 whole entry): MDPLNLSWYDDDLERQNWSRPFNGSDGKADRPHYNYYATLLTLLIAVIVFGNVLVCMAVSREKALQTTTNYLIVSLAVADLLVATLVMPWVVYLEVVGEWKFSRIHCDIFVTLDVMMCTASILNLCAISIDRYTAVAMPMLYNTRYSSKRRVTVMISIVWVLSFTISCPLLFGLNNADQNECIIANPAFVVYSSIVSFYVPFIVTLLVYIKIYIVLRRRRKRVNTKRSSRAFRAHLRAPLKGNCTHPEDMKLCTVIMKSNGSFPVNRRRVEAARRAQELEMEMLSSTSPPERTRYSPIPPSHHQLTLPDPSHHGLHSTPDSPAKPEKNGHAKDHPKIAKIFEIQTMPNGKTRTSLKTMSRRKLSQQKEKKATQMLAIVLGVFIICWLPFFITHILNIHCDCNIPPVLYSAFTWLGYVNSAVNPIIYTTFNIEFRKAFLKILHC
T4 sequence (P21728 whole entry): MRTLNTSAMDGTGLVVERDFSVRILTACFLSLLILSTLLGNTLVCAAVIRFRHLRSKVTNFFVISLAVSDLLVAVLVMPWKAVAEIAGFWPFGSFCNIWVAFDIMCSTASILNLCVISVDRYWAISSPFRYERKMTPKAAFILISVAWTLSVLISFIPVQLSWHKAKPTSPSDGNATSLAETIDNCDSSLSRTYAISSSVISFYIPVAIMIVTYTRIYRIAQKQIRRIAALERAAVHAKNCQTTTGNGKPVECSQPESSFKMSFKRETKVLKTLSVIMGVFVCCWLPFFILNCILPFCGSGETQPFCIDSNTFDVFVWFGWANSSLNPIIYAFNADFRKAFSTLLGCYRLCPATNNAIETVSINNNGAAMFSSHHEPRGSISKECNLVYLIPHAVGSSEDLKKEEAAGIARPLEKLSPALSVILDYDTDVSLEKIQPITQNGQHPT
T8 sequence (P14842 whole entry): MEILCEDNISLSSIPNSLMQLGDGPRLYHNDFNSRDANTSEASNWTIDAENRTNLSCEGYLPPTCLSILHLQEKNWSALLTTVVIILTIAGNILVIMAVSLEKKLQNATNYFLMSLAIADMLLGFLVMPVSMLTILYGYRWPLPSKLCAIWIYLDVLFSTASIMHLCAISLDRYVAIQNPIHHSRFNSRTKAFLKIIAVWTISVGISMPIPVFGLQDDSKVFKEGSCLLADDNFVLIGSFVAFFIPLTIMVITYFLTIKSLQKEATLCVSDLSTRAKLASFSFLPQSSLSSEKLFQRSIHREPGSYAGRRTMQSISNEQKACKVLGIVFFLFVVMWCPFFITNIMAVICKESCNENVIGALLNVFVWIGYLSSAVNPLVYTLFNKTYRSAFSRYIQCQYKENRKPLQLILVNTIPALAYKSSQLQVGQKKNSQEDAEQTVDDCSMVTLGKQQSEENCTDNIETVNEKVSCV

Structure (SMILES)	Binding Ratios NET/DAT ([1]; Table 5)	Binding Ratios SERT/DAT ([1]; Table 5)	IC50 [4]	Discrimination Ratios (DR) [3H]DA reuptake/DAT binding [4]	IC50 [6]	Ki [10]	IC50 [14]	Attenuation of cocaine-induced LMA [16]	AD50, dose attenuating cocaine-induced stimulation by 50% [16]	ED50 [17]	ME/CME, Maximal Effect/Cocaine Maximal Effect [17]	mode of action [17]	ID50, dose producing 1/2 maximal depressant activity (I, inhibition) [17]	further results
Fc1ccc(C(OCCCCN2CCN(c3ccccn3)CC2)c2ccc(F)cc2)cc1 [Compound 39, 1-[4-[Bis(4-fluorophenyl)methoxy]butyl]-4-pyridin-2-ylpiperazine]	12.3	>1190	386 ± 55 nM	46	2230 ± 710 nM	53.5 ± 8.62 nM	955 nM	Attenuation	62.1 mg/kg	38 mg/kg	>0.35	biphasic	60.3/I^e,i mg/kg	Ki [1]: 8.4 ± 4 nM; Ki ([2]; bound given in μM): > 10 µM; Ki [3]: 103 ± 37 nM; IC50 ([5]; bound given in μM): > 10 µM; Ki [7]: 597 ± 19.4 nM; Ki [8]: 282 ± 67.7 nM; Ki [9]: 453 ± 163 nM; binding for 5-HT1A ([10]; Table 7): moderate binding; Ki [11]: 498 ± 47.9 nM; Ki [12]: 3450 ± 1080 nM; D2 functional activity, marked agonist (footnote d) ([13]; Table 7, CHOp-D2 cells, [3H]thymidine incorporation, agonist): 196 ± 62.8^d nM; ED50, dose producing 1/2 maximal stimulant activity (S, stimulation) ([15]; Table 8, mouse, IP, ligand alone, 1-h session): no activity
Fc1ccc(C(OCCCCN2CCNC(c3ccccc3)C2)c2ccc(F)cc2)cc1 (stereo not drawn) [Compound 28, 2-Phenyl-4-[4-[bis(4-fluorophenyl)methoxy]butyl]piperazine]	49.9	19.6	550 ± 140 nM	144 and 144.4	290 ± 50 nM	2250 ± 359 nM	629 nM	Attenuation	50.27 mg/kg	7.6 mg/kg	0.30	biphasic	36.4/I^e,f mg/kg	Ki ([1]; Table 5, [125I]RTI-55, oxalate salts, read-out: DAT binding affinity Ki): 3.81 ± 0.84 nM; Ki ([2]; [125I]RTI-55, oxalate salts): 0.0746 ± 0.0058 µM; IC50 [5]: 0.7 ± 0.26 µM; Ki ([7]; Table 7, LHD1 cells, [3H]SCH 23,390, read-out: D1 Affinity Ki): 6150 ± 541 nM; Ki ([8]; Table 7, CHOp- cells, [3H]YM-09151-2, read-out: D2 Affinity Ki): 715 ± 404 nM; Ki ([9]; Table 7, CHOp- cells, [3H]YM-09151-2, read-out: D3 Affinity Ki): 677 ± 262 nM; Ki ([11]; Table 7, rat receptors, NIH-3T3-GF6 cells, [3H]ketanserin, read-out: 5-HT2A Affinity Ki): 1490 ± 352 nM; Ki ([12]; Table 7, rat receptors, [3H]mesulergine, read-out: 5-HT2C Affinity Ki): 6700 ± 437 nM; IC50 ([13]; read-out: D2 Antagonist activity IC50): 164 nM; ED50 ([15]; Mus musculus, ip, 1 h, read-out: ED50, dose producing 1/2 maximal stimulant activity (S, stimulation)): 1.52 mg/kg; mode of action ([15]; Table 8, ligand alone study): monophasic; ME/CME, Maximal Effect/Cocaine Maximal Effect ([15]; Table 8, mouse locomotor activity): 0.30; effect on spontaneous LMA ([15]; mouse, compound alone): significant increase

From patent US8772319B2 (priority 2004, dated 2014)
